In patent US20140193383A1, “USE OF LACTOBACILLUS KEFIRANOFACIENS AS A PROBIOTIC AND A SYNBIOTIC” (Technologies Biolactis Inc., priority 2005, published 2014):

How the values were obtained:
[1] = tested on: diet-induced hyperlipidemia and weight gain; assay: Model of hypertriglyceridemia and obesity (fructose 10% in drinking water); format: in vivo, Wistar rats
Method: The whey fermented with L. kefiranofaciens […] was tested for its capacity to regulate weight gain and blood lipid levels in a diet-induced rat model of hyperlipidemia. This protocol allows a comparison to niacin (vitB3) in regulating diet-induced hyperlipidemia in rats. […] The hypo-lipidemic effects of the whey fermented with L. kefiranofaciens […] during the fructose treatment period were evaluated. Blood samples are collected before the start of fructose treatment, and once a week for 4 weeks during the induction of hyperlipidemia. Serum levels of triglycerides were measured.

[2] = tested on: visceral fat in Spontaneous Hypertensive Rat; assay: Weight and fat management, SHR model (visceral fat); format: in vivo, SHR rats; details: once a day for 56 days, saline 100
Method: The whey fermented with L. kefiranofaciens R2C2 was tested for its capacity to regulate fat distribution as well as weight gain in the Spontaneous Hypertensive Rat model and in ovariectomized rats. The SHR model was used as previously described but used to monitor the levels of visceral fat accumulating in the belly following. The animals were fed with 1 ml of whey fermented with L. kefiranofaciens R2C2 (20% solid) once a day for 56 days (P.O. q1×56)
Group 1: 12 rats, gavage saline Group 2: 12 rats, gavage niacine (100 mg/kg) Group 3: 12 rats, gavage whey fermented with L. kefiranofaciens R2C2 (1 ml per gavage)

[3] = tested on: poloxamer 407 induced hyperlipidemia; assay: Model of hyperlipidemia, poloxamer 407 (Example 8a); format: in vivo, Wistar rats
Method: The whey fermented with L. kefiranofaciens R2C2 was tested for their capacity to regulate blood lipid levels in a rat model of hyperlipidemia. […] Wistar rats injected i.p. with poloxamer 407 rapidly develop severe but transient hyperlipidemia. […] The hypo-lipidemic effect of L. kefiranofaciens strains is evaluated in groups of rats pre-treated orally for 7 days before injection of poloxamer. Blood lipids were measured before injection and at 24 and 72 hours following induction of hyperlipidemia. Plasma levels of triglycerides, cholesterol, HDL, LDL and glucose were evaluated.
Group 1: 4 rats, gavage saline Group 2: 4 rats, gavage niacin (100 mg/kg) Group 3: 4 rats, gavage whey fermented with L. kefiranofaciens R2C2 (1 ml per gavage)

[4] = tested on: poloxamer 407 induced hyperlipidemia; assay: Anti-triglyceridemia potential, poloxamer 407 rats (Example 6); format: in vivo, female Wistar rats
Method: For the experiment, female Wistar rats, 7 weeks old, weighing 125-150 g. were purchased from Charles River Canada. Rats were randomized into 4 different groups, each composed of at least 6 animals. […] They were housed under specific pathogen-free conditions and maintained in a […] light/dark cycle. All animals consumed standard diet and received water ad libitum. MPM was in a lyophilized form and prepared daily by adding 80% of water and mixed to create back a yoghurt-like product. The bacterial strain Lactobacillus […] was routinely cultured in MRS broth (BD Biosciences, Mississauga, ON, Canada) at 37° C. for a period of 24 h. Bacteria were then pelleted by centrifugation at 4000 rpm for 8 minutes and re-suspended at a concentration of 10^9 cells/mL in sterile PBS (Invitrogen). Niacin was dissolved in water in order for the rats to receive a dose of 100 mg of treatment per kg. […] The poloxamer 407 solution for intraperitoneal (i.p.) injection was prepared by combining the agent with sterile water and refrigerating overnight to facilitate dissolution of the polymer by the cold method of incorporation. […] Approximately 1 mL of blood was collected from the jugular vein in 3 mL syringes and immediately transferred in lithium-heparinized plastic tubes (Sarstedt, Montreal, QC, Canada). Tubes were lightly shaken for 10 seconds, and then centrifuged to allow separation of the plasma. Plasma samples were collected in clean 1.5 mL eppendorf and immediately frozen at -80° C. until the time of analysis. For blood collection, each animal was anesthetized using isoflurane (AErrane, Baxter Corporation, Deerfield, Ill., USA). […] Animals were sacrificed after the last blood collection by the CO2 asphyxia method. […] Samples from all experimental groups were analyzed for total cholesterol and triglycerides. All analysis were performed in an independent laboratory (Laboratoire medical Biron, 4105-[…] Blvd, Brossard, Québec, Canada, J4Y 2P4), ISO 9002 certified, offering a reliable plasma lipids quantification service.

[5] = tested on: poloxamer 407 induced hyperlipidemia; assay: Poloxamer 407 rat model of hyperlipidemia (strains); format: in vivo, Wistar rats
Method: The different bacterial strains were tested for their capacity to regulate blood lipid levels in a rat model of hyperlipidemia. […] Wistar rats injected i.p. with poloxamer 407 rapidly develop severe but transient hyperlipidemia. […] The hypo-lipidemic effect of L. kefiranofaciens strains is evaluated in groups of rats pre-treated orally for 7 days before injection of poloxamer. Blood lipids were measured before injection and at 24 and 72 hours following induction of hyperlipidemia. Plasma levels of triglycerides, and cholesterol (LDL) were evaluated.
Group 1: 4 rats, gavage saline Group 2: 4 rats, gavage niacin (100 mg/kg) Group 3: 4 rats, gavage R2C2 (1×10^8 cfu/ml) Group 4: 4 rats, gavage INIX (1×10^8 cfu/ml) Group 5: 4 rats, gavage BioSP (1×10^8 cfu/ml) Group 6: 4 rats, gavage K2 (1×10^8 cfu/ml)

[6] = plasma, before poloxamer, saline 1.55

O=C(O)c1cccnc1 [Niacin, niacin]
Levels of triglyceride, % relative to saline on day 0 ([1]; Day 0, saline 100): 100% | Levels of triglyceride, % over saline group ([1]; Day 7 of fructose, saline 260): 150% | Levels of triglyceride, % over saline group ([1]; Day 21 of fructose, saline 270): 160% | % of animals with visceral fat [2]: 70% | Triglycerides (mmol/L) after 7 days of treatment [3, 6]: 0.97 mmol/L | Triglycerides (mmol/L) 72 h post-induction of hyperlipidemia ([3]; plasma, saline 97.72): 69.96 mmol/L | Plasma triglycerides after pre-treatment of 7 days ([3]; rat, in vivo): plasma triglycerides were reduced | CH levels (72 hours post induction of hyperlipidemia) (%) ([4]; cholesterol, Controls 100): 33% | Triglyceride levels (7-day treatment) ([4]; plasma, before poloxamer 407, Controls 1.83): 1.00 mmol/L | Triglyceride levels (72 hours post induction of hyperlipidemia) ([4]; plasma, Controls 95.42): 66.96 mmol/L | Plasma triglycerides after pre-treatment of 7 days ([5]; before poloxamer): plasma triglycerides were reduced | Triglycerides (mmol/L) after 7 days of treatment [5, 6]: 0.97 mmol/L | Triglycerides (mmol/L) 72 h post-induction of hyperlipidemia ([5]; plasma, saline 95.42): 69.96 mmol/L | Plasma triglycerides 72 hours after induction of hyperlipidemia ([5]; rat, in vivo): most important reduction
